Key:
[1] = tested on: SLR; test: BL emission spectra of luciferase-luciferin reactions; format: biochemical, Phrixothrix hirtus; conditions: 100 mM HEPES pH 8.0, 25 °C
Method: (§1) 1.5 Bioluminescence characterizations
(§2) Reactions of luciferases, including Photinus pyralis luciferase (Fluc), Phrixothrix hirtus luciferase (SLR), Pyrearinus termitilluminans […]
(§3) mM D-LH 2 analogues, 3 mM ATP, 6 mM MgCl2, and 10 µM luciferase in 0.2 ml of 100 mM HEPES-NaOH pH 8.0. The bioluminescence (BL) emission characteristics were recorded using a microplate reader in a BL mode (Thermo Scientific, Varioskan, LUX multimode). […]
(§4) sphere-based multichannel spectrometer with a charge-coupled device (CCD) detector. […]

[2] = target: T1, Fluc (Photinus pyralis, UniProt P08659); conditions: Fluc; cited from earlier work
T1 sequence (P08659 whole entry): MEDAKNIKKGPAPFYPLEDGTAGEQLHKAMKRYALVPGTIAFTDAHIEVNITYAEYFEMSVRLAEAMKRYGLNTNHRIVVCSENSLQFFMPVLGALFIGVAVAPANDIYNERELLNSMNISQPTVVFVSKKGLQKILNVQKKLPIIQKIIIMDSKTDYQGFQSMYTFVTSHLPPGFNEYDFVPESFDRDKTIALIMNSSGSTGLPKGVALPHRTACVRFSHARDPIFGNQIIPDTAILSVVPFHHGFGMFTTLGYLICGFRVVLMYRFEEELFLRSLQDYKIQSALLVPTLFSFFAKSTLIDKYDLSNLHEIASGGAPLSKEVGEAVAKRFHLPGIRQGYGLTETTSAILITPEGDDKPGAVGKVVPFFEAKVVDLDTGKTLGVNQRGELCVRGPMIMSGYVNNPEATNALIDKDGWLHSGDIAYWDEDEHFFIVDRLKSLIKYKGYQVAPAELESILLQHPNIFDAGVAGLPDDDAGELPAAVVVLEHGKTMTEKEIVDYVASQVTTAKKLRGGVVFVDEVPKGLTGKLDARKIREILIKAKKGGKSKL

[3] = tested on: Eluc; test: BL emission spectra of luciferase-luciferin reactions; format: biochemical, Pyrearinus termitilluminans; conditions: 100 mM HEPES pH 8.0, 25 °C
Method: as §1, §2, §3, §4

[4] = tested on: Pmluc-WT; test: as above; format: biochemical, Pyrocoelia miyako; conditions: 100 mM HEPES pH 8.0, 25 °C
Method: as §1, §2, §3, §4

[5] = tested on: Pmluc-N230S (HeLa); test: Sensitivity of live reporter cell detection (LOD of cell number); format: cell-based, human; conditions: for Limit of detection (LOD), cells: Pmluc-N230S (HeLa); for Sensitivity higher than that of 2a: Pmluc-N230S expressing HeLa
[6] = target: T2, Fluc-containing HEK293T crude lysate (Photinus pyralis, UniProt P08659, K549A/L550V/N119G/N50D/S548I); test: BL assay of crude lysate of HEK293T expressing Fluc; format: cell-based
T2 construct: expressed in transfected cells; host or cells: HEK293T, transient transfection with pGL4.13 [luc2/SV40]
T2 sequence (P08659 whole entry N50D/N119G/S548I/K549A/L550V): as the sequence (P08659 whole entry) above, with N50D, N119G, S548I, K549A, L550V counted along it

[7] = tested on: SLR (HeLa); test: Sensitivity of live reporter cell detection (LOD of cell number); format: cell-based, human
[8] = tested on: Pmluc-N230S; test: BL emission spectra of luciferase-luciferin reactions; format: biochemical, Pyrocoelia miyako; conditions: 100 mM HEPES pH 8.0, 25 °C
Method: mM D-LH 2 analogues, 3 mM ATP, 6 mM MgCl2, and 10 µM luciferase in 0.2 ml of 100 mM HEPES-NaOH pH 8.0. The bioluminescence (BL) emission characteristics were recorded using a microplate reader in a BL mode (Thermo Scientific, Varioskan, LUX multimode). A digital single-lens reflex (DSLR) camera (Nikon D80, CCD sensor) with a 30-second exposure period was used to capture the BL images.
were selected to investigate their BL emission spectra with luciferases including Fluc, SLR, Pmluc-WT, Pmluc-N230S using an integrating sphere-based multichannel spectrometer with a charge-coupled device (CCD) detector.
The reactions were initiated by mixing 25 µl of premixed solution of luciferases/D-LH 2 analogues with 125 µl of 3 mM ATP and 6 mM MgCl2 in 100 mM HEPES-NaOH (pH 8.0).

[9] = tested on: Fluc (HeLa); test: Sensitivity of live reporter cell detection (LOD of cell number); format: cell-based, human; conditions: for Limit of detection (LOD), cells: Fluc (HeLa)
[10] = tested on: Pmluc-N230S (HepG2); test: as above; format: cell-based, human
[11] = tested on: SLR; test: Stability of BL signals (half-time of light emission); format: biochemical, Phrixothrix hirtus; conditions: compared to 2a
Method: as §1, §2
as §3, with “multimode). A digital single-lens reflex (DSLR) camera (Nikon D80, CCD sensor) with a 30-second exposure period was used to capture the BL images.” for “multimode).”

[12] = target: T1, Fluc; test: BL emission spectra of luciferase-luciferin reactions; format: biochemical; conditions: 100 mM HEPES pH 8.0, 25 °C
Method: as §1, §2, §3, §4

[13] = tested on: Fluc-expressing HeLa cells; test: Real-time BL monitoring of live cells; conditions: 100 µM
Method: plasmids and Lipofectamine 3000 were then combined and incubated for 30 minutes to allow formation of DNA and lipid complexes.
The DNA-lipid complexes were added directly to each well of the empty plate. 1.5 × 10⁵ cells (HepG2 and HeLa cells) were then suspended
in 150 µL of DMEM supplemented with 10% FBS were added directly into the transfection mixture in each well. The plate was gently
agitated to ensure even distribution and incubated at 37°C in a humidified 5% CO₂ incubator. The reporter cells obtained at this stage
were ready for further investigation of their bioluminescence with D-LH2 analogues.
2c), 10% FBS and 25 mM HEPES-NaOH (pH 7.0) was added and the BL signals were monitored with F0 (no filter) and F2 (red filter, >620
nm long-pass filter) by a luminometer (ATTO, Kronos HT, WSL-1563) and while maintaining the cells with 5% CO2 at 37 °C.

[14] = tested on: Pmluc-N230S; test: Stability of BL signals (half-time of light emission); format: biochemical, Pyrocoelia miyako; conditions: compared to 2a
Method: as §1, §2
as §3, with “multimode). A digital single-lens reflex (DSLR) camera (Nikon D80, CCD sensor) with a 30-second exposure period was used to capture the BL images.” for “multimode).”

[15] = target: T1, Fluc; test: as above; format: biochemical; conditions: compared to 2a
Method: as §1, §2
as §3, with “multimode). A digital single-lens reflex (DSLR) camera (Nikon D80, CCD sensor) with a 30-second exposure period was used to capture the BL images.” for “multimode).”

[16] = Fluc-expressing HeLa, F0 filter

| SMILES | Bioluminescence wavelength (BLλ) [1] | Bioluminescence wavelength (BLλ) [3] | Bioluminescence wavelength (BLλ) [4] | Limit of detection (LOD), cells ([5]; F0 (no filter)) | Limit of detection (LOD), cells ([5]; F2 (red filter)) | Limit of detection (LOD) of expressed Fluc in crude cell lysates ([6]; HEK293T crude lysate) | Limit of detection (LOD), cells ([7]; F0 (no filter)) | Limit of detection (LOD), cells ([7]; F2 (red filter)) | Limit of detection (LOD), cells ([9]; F0 (no filter)) | Limit of detection (LOD), cells ([9]; F2 (red filter)) | Limit of detection (LOD), cells ([10]; F0 (no filter)) | Limit of detection (LOD), cells ([10]; F2 (red filter)) | Bioluminescence wavelength (BLλ) [12] | Time BL signals increase or are prolonged before decreasing [13] | BL half-life (t1/2) longer than that of 2a [14] | also measured |
| --- | --- | --- | --- | --- | --- | --- | --- | --- | --- | --- | --- | --- | --- | --- | --- | --- |
| O=C(O)[C@H]1CSC(c2nc3ccc(O)cc3s2)=N1 [Compound 2a, D-luciferin, reference compound] | 625 nm | 537 nm | 554 nm | 1428 cells | 1185 cells | 51.6 ng | 1352 cells | 1268 cells | 4661 cells | 997 cells | 2010 cells | 1880 cells | – | – | – | Quantum yield [2]: 41%; Bioluminescence wavelength (BLλ) [8]: 614 nm |
| Cc1cc2nc(C3=N[C@@H](C(=O)O)CS3)sc2cc1O [Compound 2b, 5’-methyl-D-luciferin] | 626 nm | 560 nm | 608 nm | 630 cells | 812 cells | 4.6 ng | 973 cells | 826 cells | 1457 cells | 415 cells | 752 cells | 247 cells | 605 nm | up to 13 h | about 1.7 fold | BL half-life (t1/2) longer than that of 2a [11]: about 1.5 fold; Sensitivity higher than that of 2a ([5]; F0 filter): about 2.3 fold; Sensitivity higher than that of 2a ([5]; F2 filter): ~1.4 fold; Sensitivity to detect Fluc better than natural D-LH2 (2a) ([6]; HEK293T crude lysate, from LOD): about 11.2 fold; Sensitivity greater than 2a ([6]; HEK293T lysate, varied substrate concentration and lysate amount): about 2 fold; Light intensity greater than 2a ([6]; fixed amount of HEK293T crude lysate, varied concentration): about 2.5 fold |
| Cc1cc2nc(C3=N[C@@H](C(=O)O)CS3)sc2c(C)c1O [Compound 2c, 5’,7’-di-methyl-D-luciferin] | 634 nm | 573 nm | 631 nm | – | – | – | 1437 cells | 707 cells | – | 350 cells | – | – | 628 nm | up to 13 h | ~5.6 fold | BL half-life (t1/2) longer than that of 2a [15]: about 1.7 fold; Sensitivity higher than that of 2a [9, 16]: ~13.0 fold; Sensitivity higher than that of 2b [9, 16]: about 4.1 fold; Sensitivity higher than that of 2a ([9]; Fluc-expressing HeLa, F2 filter): about 2.8 fold |

Reference: article PMC12668289 (RSC Chemical Biology, 2025)
